Reference: US5858700A, “Process for the isolation and purification of lycopene crystals” (Kemin Foods, LC, priority 1997, dated 1999)

Key:
rat = conditions: oral; cited from earlier work
[1] = Pigment (lycopene) stability in freeze-dried tomato skins on 6-day storage at 30° C.; format: physicochemical; conditions: 6 days at 30° C., hexanes extract, spectrophotometric
Excerpt: Wet tomato skins from Siagra Co., Chengmai, Thailand (8.3 kg of the 50 lb batch used in Example 1) were freeze-dried for three days in a tray freeze-dryer (FTS Systems Inc., Stone Ridge N.Y.) to obtain freeze-dried tomato skins (2.08 kg, 24.3 percent moisture) from which five samples were taken.
The first sample of freeze-dried tomato skins was ground in a rotary meat grinder, which separated the seeds from the tomato skins. Further separation using sieves and air separation produced samples that were substantially only from the skins or the seeds of the tomatoes. The skin and seed samples were ground separately in a CYCLOTEC TECATOR™ mill (Fisher Scientific, Pittsburgh Pa.) fitted with a 0.5 mm screen, and found to contain 1328 milligrams of pigment per kilogram of tomato skins and 97 milligrams of pigment per kilogram of tomato seeds. The seeds thus contribute little to the total extractable pigment yet constitute a large portion of the total sample mass.
A second sample was left in flake form, and was dried for 6 days at 30° C. A third sample was ground in a WILEY™ mill (Fisher Scientific, Pittsburgh Pa.) fitted with a 2 mm screen and dried for 6 days at 30° C. A fourth sample was ground in a WILEY™ mill fitted with a 1 mm screen and dried for 6 days at 30° C. A fifth sample was ground in a CYCLOTEC™ mill fitted with a 0.5 mm screen and dried for 6 days at 30° C.
At the end of the treatment, all of the samples were extracted with hexanes, analyzed spectrophotometrically, and compared with the amount of lycopene present in the freeze-dried flakes before the 6-day heat treatment. The samples ground in the CYCLOTEC™ mill (<0.5 mm particles) and the WILEY™ mill (<1 mm and <2 mm particles) had more of the oxidized lycopene content than the non-ground (flake) sample: 36, 33, 36 and 25 percent pigment losses, respectively. However, none of the samples after 6 days had over 75 percent of the lycopene that was present before the treatment.

prostate cancer = conditions: consumption of lycopene; Giovannucci et al. 1995; cited from earlier work

Compound | LD50 (rat) [mL/kg] | also measured
CC(C)=O [Acetone] | 10.7 | –
CC(C)=CCC/C(C)=C/C=C/C(C)=C/C=C/C(C)=C/C=C/C=C(C)/C=C/C=C(C)/C=C/C=C(\C)CCC=C(C)C [lycopene, .psi.,.psi.-carotene] | – | pigment losses ([1]; CYCLOTEC mill, <0.5 mm particles): 36%; pigment losses ([1]; WILEY mill, <1 mm particles): 33%; pigment losses ([1]; WILEY mill, <2 mm particles): 36%; pigment losses ([1]; non-ground (flake) sample): 25%; risk of prostate cancer (prostate cancer): reduced risk of prostate cancer
ClC(Cl)Cl [Chloroform] | 2.18 | –
CCOC(C)=O [Ethyl Acetate] | 11.3 | –
CC(O)CO (stereo not shown) [Propylene Glycol, 1,2-propanediol] | 25 | –
c1ccncc1 [Pyridine] | 1.58 | –
